Test results reported in US8354534B2, “Selective opioid compounds” (Alkermes, Inc., priority 2008, dated 2013).

System: morphine inhibition of prostaglandin E2 (PGE2) induced diarrhea
Test: Antagonism of morphine-inhibited diarrhea in mice
Format: in vivo, mice (Swiss-Webster)
Settings: morphine 1 mg/kg s.c., PGE2 320 μg/kg at 30 min, watery stools observed, result shown only in figure
Method: Albino mice of either sex (Swiss-Webster) weighing 20-30 g were used to determine the ability of an opioid antagonist to antagonize morphine inhibition of prostaglandin E2 (PGE2) induced diarrhea according to the method of Dajani et al. (1979). Briefly, mice are treated at time 0 with morphine, 1 mg/kg s.c. and an opioid antagonist, 60, 180, 240, 300, 360, 480, or 720 mg/kg orally; or 3, 10, 30, 100 or 140 mg/kg i.p; or saline, 0.1 ml/10 gm body weight orally or i.p. Mice are then treated at 30 min with PGE2, 320 μg/kg which consistently produced watery stools in the absence of morphine. […] Eleven to 24 mice were used per dose of an opioid antagonist for the oral and 6 are used for the i.p. routes. Data was analyzed using Fisher's exact probability test (Siegel, 1956). These studies were repeated using naltrexone, 0.005, 0.01, 0.05, 0.1, and 5 mg/kg i.p. and 0.5, 1, 2, and 4 mg/kg orally.

SMILES | Inhibition of morphine blockade of PGE2-induced diarrhea
NC(=O)c1ccc2c(c1O)[C@]13CCN(CC4CC4)[C@H](C2)[C@]1(O)CC[C@@H](NC(CC(=O)O)C(=O)O)C3 (some centres unmarked) [Compound 13] | Inhibition of morphine blockade of PGE2-induced diarrhea
NC(=O)c1ccc2c(c1O)[C@]13CCN(CC4CC4)[C@H](C2)[C@]1(O)CC[C@@H](NC(=O)[C@@H](N)CC(=O)O)C3 [Compound 12] | Inhibition of morphine blockade of PGE2-induced diarrhea
